Measured values reported in paper PMC5754413, “Mass balance, metabolic disposition, and pharmacokinetics of a single oral dose of regorafenib in healthy human subjects” (Cancer Chemotherapy and Pharmacology, 2017).
“And” between values parts separate entries of the source, which are not always exact repeats. Equal entries are not always repeated.

How the values were obtained:
[1] = Metabolite profiling in plasma by HPLC–LSC; type: in vivo, human; details: for Occurrence in plasma: radiochromatography of plasma; for Percent of total AUC(0–144) of radioactivity in plasma: based on HPLC–LSC, mean
Protocol: Blood and plasma: Blood samples (18.7 mL per each time point) were collected into nonbeaded lithium-heparinized tubes immediately pre-dose and at the following post-dose times: 0.5, 1, 1.5, 2, 2.5, 3, 4, 6, 9, 12, 16, 20, 24, 36, 48, 72, 96, 120, 144, 192, 240, and 288 h. For each sample, 1 mL of whole blood was stored at 4 °C for subsequent LSC and the remainder was processed for plasma. Individual 150 μL plasma samples for each time point were treated with formic acid (20 μL) and acetonitrile (450 μL). The samples were homogenized using a MS2 Minishaker® (IKA® Labortechnik, Staufen im Breisgau, Germany). The precipitated proteins were removed by centrifugation (5 min, 13,000 rpm, Biofuge). After concentrating the supernatant to about 80 μL, methanol (15 μL) was added. The individual samples were analyzed by HPLC with off-line radioactivity detection for metabolite profiling.
Pharmacokinetic outcome measures were generated by non-compartmental analysis of plasma concentration–time data using WinNonlin v4.1 (Pharsight Corporation) in conjunction with Kincalc v2.50 (Bayer AG). For individual subjects, primary outcome measures were maximum observed concentration (C max) and area under the concentration–time curve from time zero to infinity (AUC). […] The metabolite or regorafenib percentages were calculated by AUC(0–144)metabolite or regorafenib divided by AUC(0–144)radioactivity calculated from data obtained by HPLC–LSC analysis. Secondary outcomes were: time to C max (t max); apparent terminal elimination half-life (t ½); apparent volume of distribution during the terminal phase after extravascular administration (Vz/F); and total body clearance of drug calculated after extravascular administration (e.g., apparent oral clearance) (CL/F). AUC was estimated by the sum of partial areas: partial areas were calculated using the linear (if C i ≤ C i+1) or the logarithmic (if C i > C i+1) trapezoidal rules. The quality of the half-life calculation was assessed based on graphs showing the concentration–time profile. For reliable calculation of the half-life, at least three data points (concentration/time values) were used. The extrapolated portion of the AUC from the last measured data point C(t n) to infinity was calculated using the concentration C last,calc, which was calculated from the log-linear regression line used for half-life calculation rather than C(t n). In addition, appropriate pharmacokinetic parameters were derived from the total radioactivity-versus-time data in blood and plasma.
(§1) Due to the limited amount of radiocarbon associated with many of the samples, analyses were conducted using HPLC with fraction collection followed by off-line LSC. Samples were analyzed on a 150 × 3 mm Prodigy® ODS-3 100A, 3 µm column (Phenomenex, Aschaffenburg, Germany) protected by 8 × 3 mm Nucleosil® 100-3 C18 HD guard columns (Macherey–Nagel, Düren, Germany). Metabolites were separated with a gradient of aqueous potassium dihydrogen phosphate (1 g/L, pH 2.0, mobile phase A) versus acetonitrile (mobile phase B) at a flow rate of 0.5 mL/min (gradient: 0% B at 0 min, linear to 50% B at 10 min, linear to 60% B at 25 min, linear to 80% B at 26 min, plateau at 80% B to 30 min). The radiochemical profile of [^14C]regorafenib-derived radioactivity was determined for all urine samples, plasma extracts, and fecal homogenate extracts. Here, HPLC fractionation into 96-well plates was followed by off-line LSC (Wallac 1450 MicroBeta liquid scintillation analyzer) after adding 150 μL of scintillation cocktail to each well (Ultima-Flo™ AP, PerkinElmer; sampling rate: 10 s/well) using the Wallac 1450 Microbeta™ Plusliquid detector. Reconstructed radiochemical profiles were compiled from the resulting data.

[2] = system: human hepatocytes; experiment: In vitro metabolism of [14C]regorafenib in human hepatocytes; type: in vitro ADME; details: [14C]regorafenib 2 µM, 2 h
Protocol: Primary human hepatocytes were obtained from two male donors. […] Regorafenib was added from a 200 µM stock solution in acetonitrile, resulting in 1% final acetonitrile in the incubation. At 0 and 2 h, aliquots of the incubation mixture were removed and the incubation was terminated with acetonitrile to a final content of about 30% (v/v). Samples were analyzed directly or stored at − 20 °C until analysis. Analysis was performed by HPLC–liquid scintillation counting (HPLC–LSC) and HPLC–high-resolution mass spectrometry (HPLC–HRMS/MS).

[3] = system: human feces; experiment: Incubation with human feces under anaerobic conditions; type: in vitro ADME; details: for Conversion to the parent drug on incubation in feces: 10 μM, 24 h, 37 °C, anaerobic, reduction of M-2, hydrolysis of M-7; for Stability in feces / toward gut flora: anaerobic conditions, ex vivo
Protocol: Under anaerobic conditions, a suspension of fresh human feces (about 0.5 g) in degassed water (final volume 5 mL) was treated with a solution of [^14C]-labelled metabolite M-2 or metabolite M-7 (1 mg/mL acetonitrile; final concentration: 10 μM). After incubation for 24 h at 37 °C, the incubation mixture was terminated by the addition of acetonitrile (2 mL). After centrifugation (5 min, 3000 rpm), the supernatant (25 μL) was directly subjected to HPLC with the respective off-line radioactivity detection. As negative controls, metabolites M-2 and M-7 were incubated in water for 24 h at 37 °C.

[4] = set-up: method as in PMID 22421192, PMID 22568966; details: cited from earlier work; for Exposure relative to regorafenib after a single dose: plasma; for Secondary maximum of plasma concentration–time profile / Tertiary maximum of plasma concentration–time profile: steady state
[5] = set-up: method as in PMID 27734608; details: cited from earlier work
[6] = set-up: method as in PMID 24896071; details: co-administration of ketoconazole with a single 160 mg dose of regorafenib; cited from earlier work
[7] = Mass balance: urinary and fecal excretion of radioactivity and metabolite pattern in excreta; type: in vivo, human; details: individual values of the four subjects
Protocol: Urine: Urine samples were collected at 12-h intervals post-dose on Day 1 and then at 24-h intervals until 288 h post-dose. Urine was stored at 4 °C until it was divided into aliquots for LSC and subsequent metabolite profiling (aliquots were stored at − 20 °C).
Feces: Fecal samples were collected and homogenized in water on a daily basis until 12 days post-dose. Duplicate aliquots of the homogenates were taken for combustion with oxygen (in preparation for LSC), and separate aliquots were used for metabolite profiling.
Liquid samples: Duplicate aliquots of liquid samples were diluted with 1 mL distilled water, if necessary, and mixed with 10 mL Aquasafe 500 Plus scintillation fluid. Levels of radioactivity were measured by LSC (PerkinElmer 2100) with automatic quench correction by an external standard channel ratio method at 13 °C using Ultima Gold™ as the liquid scintillation cocktail. Lower limits of detection (LLOD) were 30 μg-Eq/L for plasma (sample volume 0.5 mL), 50 μg-Eq/L for whole blood (sample volume 0.3 mL), and 0.016 μg-Eq/g for urine (sample weight 1 g).
Fecal samples: Duplicate aliquots of fecal homogenate (about 0.3 g) were weighed into Combustocones® containing Combustopads® for combustion analysis. Samples were combusted using a Packard Tri-Carb 307 Automatic Sample Oxidizer. The resultant ^14CO2 generated was collected by absorption in Carbo-Sorb (8 mL) to which Permafluor E+ (10 mL) was added. Radioactivity was quantified using a liquid scintillation analyzer (PerkinElmer 2100), with automatic quench correction using an external standard method as urine sample analysis. Samples were allowed to stabilize with respect to heat and light, and each sample was analyzed for 5 min. Prior to calculation of individual results, a background count rate was determined and subtracted from each sample’s count rate. LOD was 0.05 μg-Eq/g (sample weight 0.3 g).
as §1

Question: Which results are given for O=C(Nc1ccc(Cl)c(C(F)(F)F)c1)Nc1ccc(Oc2cc[n+]([O-])c(C(=O)NCO)c2)cc1F [M-1]?
Answer: Occurrence in plasma [1]: only occasionally found as traces in plasma; Formation in human hepatocytes [2]: observed

Question: Which “Percent of total AUC(0–144) of radioactivity in plasma” value (shortened to “Percent”) [1] does the source give for CNC(=O)c1cc(Oc2ccc(NC(=O)Nc3ccc(Cl)c(C(F)(F)F)c3)c(F)c2)cc[n+]1[O-] [M-2] here?
Answer: Its value is 28.7%.

Question: What about the half-life ([1]; male, human, plasma, oral, 120 mg, read-out: Half-life of M-2, range between subjects) of the same molecule?
Answer: The half-life was 11 to 33 h.

Question: What about the “Mean total exposure, AUC(0–144 h)” value ([1]; plasma, HPLC–LSC) of the same molecule?
Answer: The value was 20.16 mg-Eq·h/L.

Question: And the “Conversion to the parent drug on incubation in feces” value [3]?
Answer: The value was “quantitative”.

Question: And the “Stability in feces / toward gut flora” value [3]?
Answer: Its value is “not stable”.

Question: What about the “Formation in human hepatocytes” value [2] of the same molecule?
Answer: The value was “identified”.

Question: What about the “Exposure relative to regorafenib after a single dose” value [4] of the same molecule?
Answer: The value was “signficantly lower exposure than regorafenib”.

Question: And the “Secondary maximum of plasma concentration–time profile” value [4]?
Answer: The value was 6 to 8 h.

Question: And the “Tertiary maximum of plasma concentration–time profile” value [4]?
Answer: The value was ~24 h.

Question: What about the “Fraction unbound in plasma” value [5] of the same molecule?
Answer: The value was 0.188%.

Question: And the “Decrease in mean AUC” value [6]?
Answer: Its value is > 90%.

Question: What about the “Decrease in mean C max” value [6] of the same molecule?
Answer: Its value is > 90%.

Question: With O=C(Nc1ccc(Cl)c(C(F)(F)F)c1)Nc1ccc(Oc2ccnc(C(=O)NCO)c2)cc1F [M-3] as the molecule, how does the Occurrence in plasma [1] read?
Answer: The Occurrence in plasma was “only occasionally found as traces in plasma”.

Question: What about the “Formation in human hepatocytes” value [2] of the same molecule?
Answer: Its value is “identified”.

Question: With NC(=O)c1cc(Oc2ccc(NC(=O)Nc3ccc(Cl)c(C(F)(F)F)c3)c(F)c2)ccn1 [M-4] as the molecule, how does the Occurrence in plasma [1] read?
Answer: Its Occurrence in plasma is “only occasionally found as traces in plasma”.

Question: And the “Formation in human hepatocytes” value [2]?
Answer: The value was “identified”.

Question: Which “Percent” value [1] does the source give for NC(=O)c1cc(Oc2ccc(NC(=O)Nc3ccc(Cl)c(C(F)(F)F)c3)c(F)c2)cc[n+]1[O-] [M-5] here?
Answer: The value was 6.3%.

Question: And the “Mean total exposure, AUC(0–144 h)” value ([1]; plasma, HPLC–LSC)?
Answer: Its value is 2.00 mg-Eq·h/L.

Question: What about the “Formation in human hepatocytes” value [2] of the same molecule?
Answer: The value was “observed”.

Question: And the “Terminal half-life (t 1/2)” value [4]?
Answer: Its value is “about 60 h”.

Question: What about the “Exposure relative to regorafenib after a single dose” value [4] of the same molecule?
Answer: The value was “signficantly lower exposure than regorafenib”.

Question: What about the “Secondary maximum of plasma concentration–time profile” value [4] of the same molecule?
Answer: Its value is 6 to 8 h.

Question: What about the “Tertiary maximum of plasma concentration–time profile” value [4] of the same molecule?
Answer: The value was ~24 h.

Question: And the “Fraction unbound in plasma” value [5]?
Answer: Its value is 0.053%.

Question: What about the “Decrease in mean AUC” value [6] of the same molecule?
Answer: Its value is > 90%.

Question: And the “Decrease in mean C max” value [6]?
Answer: Its value is > 90%.

Question: For O=C(Nc1ccc(Cl)c(C(F)(F)F)c1)Nc1ccc(Oc2ccnc(C(=O)O)c2)cc1F [M-6], which “Formation in human hepatocytes” value [2] is on record?
Answer: Its value is “identified”.

Question: With CNC(=O)c1cc(Oc2ccc(NC(=O)N(c3ccc(Cl)c(C(F)(F)F)c3)C3OC(C(=O)O)C(O)C(O)C3O)c(F)c2)ccn1 (stereo not shown) [M-7] as the molecule, how does the “Percent” value [1] read?
Answer: Its value is 3.1%.

Question: What about the “C max, range between subjects” value ([1]; plasma, HPLC–LSC) of the same molecule?
Answer: Its value is 137–174 μg-Eq/L.

Question: And the “Mean total exposure, AUC(0–144 h)” value ([1]; plasma, HPLC–LSC)?
Answer: Its value is 2.43 mg-Eq·h/L.

Question: What about the “Fecal excretion of M-7 in individual subjects” value [7] of the same molecule?
Answer: The value was 0.03 % of the dose and 0.3 % of the dose and about 6.0 % of the dose and 13.7 % of the dose and about 14 % of the dose.

Question: And the “Conversion to the parent drug on incubation in feces” value [3]?
Answer: The value was < 10%.

Question: And the “Stability in feces / toward gut flora” value [3]?
Answer: The value was “not stable”.

Question: What about the “Formation in human hepatocytes” value [2] of the same molecule?
Answer: Its value is “identified”.

Question: With CNC(=O)c1cc(Oc2ccc(NC(=O)N(c3ccc(Cl)c(C(F)(F)F)c3)C3OC(C(=O)O)C(O)C(O)C3O)c(F)c2)cc[n+]1[O-] (stereo not shown) [M-8] as the molecule, how does the Occurrence in plasma [1] read?
Answer: The Occurrence in plasma was “only occasionally found as traces in plasma”.

Question: And the “Course of degradation on incubation with human feces” value [3]?
Answer: Its value is “reduction of the N-oxide leading to M-7 proceeded much faster than cleavage of the N-glucuronide yielding M-2”.

Question: What about the “Stability in feces / toward gut flora” value [3] of the same molecule?
Answer: Its value is “not stable”.

Question: What about the “Formation in human hepatocytes” value [2] of the same molecule?
Answer: The value was “observed”.
